According to ChEMBL document CHEMBL3763148, “Synthesis, structure elucidation, DNA-PK and PI3K and anti-cancer activity of 8- and 6-aryl-substituted-1-3-benzoxazines” (Eur J Med Chem, 2016):

Experiments:
[1] = target: T1, Phosphatidylinositol 4,5-bisphosphate 3-kinase catalytic subunit alpha isoform (Homo sapiens, UniProt P42336); experiment: Inhibition of PI3Kalpha (unknown origin) at 10 uM incubated for 60 mins by kinase-glo luminescence assay
[2] = target: T2, Phosphatidylinositol 4,5-bisphosphate 3-kinase catalytic subunit beta isoform (Homo sapiens, UniProt P42338); experiment: Inhibition of PI3Kbeta (unknown origin) incubated for 60 mins by kinase-glo luminescence assay
Target sequence in this assay (P42338 whole entry, canonical isoform): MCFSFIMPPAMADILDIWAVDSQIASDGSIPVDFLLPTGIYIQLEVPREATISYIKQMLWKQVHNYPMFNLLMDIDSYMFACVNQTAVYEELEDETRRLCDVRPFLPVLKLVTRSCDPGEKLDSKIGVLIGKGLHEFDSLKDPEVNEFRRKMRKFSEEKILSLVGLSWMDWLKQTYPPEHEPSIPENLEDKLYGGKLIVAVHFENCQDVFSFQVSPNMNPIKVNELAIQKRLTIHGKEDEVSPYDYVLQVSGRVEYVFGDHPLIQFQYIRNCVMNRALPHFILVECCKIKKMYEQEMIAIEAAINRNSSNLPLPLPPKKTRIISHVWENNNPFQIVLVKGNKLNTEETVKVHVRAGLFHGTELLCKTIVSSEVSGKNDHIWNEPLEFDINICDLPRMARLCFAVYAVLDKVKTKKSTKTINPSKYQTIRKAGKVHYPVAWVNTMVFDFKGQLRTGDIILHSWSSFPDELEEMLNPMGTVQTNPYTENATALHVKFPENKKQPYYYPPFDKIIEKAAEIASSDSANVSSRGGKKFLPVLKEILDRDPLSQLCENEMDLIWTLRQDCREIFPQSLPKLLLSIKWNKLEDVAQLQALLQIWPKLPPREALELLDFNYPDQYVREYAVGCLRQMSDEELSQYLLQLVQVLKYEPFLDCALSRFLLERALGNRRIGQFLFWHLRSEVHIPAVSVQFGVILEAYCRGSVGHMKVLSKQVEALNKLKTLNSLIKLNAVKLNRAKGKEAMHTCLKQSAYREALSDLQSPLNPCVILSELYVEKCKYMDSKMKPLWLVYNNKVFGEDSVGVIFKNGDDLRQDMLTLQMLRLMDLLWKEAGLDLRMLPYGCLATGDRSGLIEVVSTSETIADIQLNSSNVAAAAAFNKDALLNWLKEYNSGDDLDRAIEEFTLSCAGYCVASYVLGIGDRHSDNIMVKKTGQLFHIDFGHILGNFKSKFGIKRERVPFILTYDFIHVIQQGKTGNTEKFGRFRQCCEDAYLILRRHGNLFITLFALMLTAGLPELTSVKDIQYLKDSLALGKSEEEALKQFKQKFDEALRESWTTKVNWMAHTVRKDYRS

A498 = experiment: Cytotoxicity against human A498 cells assessed as cell growth inhibition at 10 uM after 48 hrs by SRB assay relative to control; type: functional; conditions: A498, 48 h, read-out: GI
MCF7 = experiment: Cytotoxicity against human MCF7 cells assessed as cell growth inhibition at 10 uM after 48 hrs by SRB assay relative to control; type: functional; conditions: MCF7, 48 h, read-out: GI
Homo sapiens = organism: Homo sapiens; experiment: Selectivity ratio of IC50 for PI3Kbeta (unknown origin) to IC50 for human DNA-PK
[3] = target: T1, Phosphatidylinositol 4,5-bisphosphate 3-kinase catalytic subunit alpha isoform; experiment: Inhibition of PI3Kalpha (unknown origin) incubated for 60 mins by kinase-glo luminescence assay
[4] = target: T2, Phosphatidylinositol 4,5-bisphosphate 3-kinase catalytic subunit beta isoform; experiment: Inhibition of PI3Kbeta (unknown origin) at 10 uM incubated for 60 mins by kinase-glo luminescence assay
Target sequence in this assay (P42338 whole entry, looked up, canonical isoform): as the sequence (P42338 whole entry, canonical isoform) above

[5] = target: T3, Phosphatidylinositol 4,5-bisphosphate 3-kinase catalytic subunit delta isoform (Homo sapiens) (UniProt O00329); experiment: Inhibition of PI3Kdelta (unknown origin) at 10 uM incubated for 60 mins by kinase-glo luminescence assay
T3 sequence (whole entry): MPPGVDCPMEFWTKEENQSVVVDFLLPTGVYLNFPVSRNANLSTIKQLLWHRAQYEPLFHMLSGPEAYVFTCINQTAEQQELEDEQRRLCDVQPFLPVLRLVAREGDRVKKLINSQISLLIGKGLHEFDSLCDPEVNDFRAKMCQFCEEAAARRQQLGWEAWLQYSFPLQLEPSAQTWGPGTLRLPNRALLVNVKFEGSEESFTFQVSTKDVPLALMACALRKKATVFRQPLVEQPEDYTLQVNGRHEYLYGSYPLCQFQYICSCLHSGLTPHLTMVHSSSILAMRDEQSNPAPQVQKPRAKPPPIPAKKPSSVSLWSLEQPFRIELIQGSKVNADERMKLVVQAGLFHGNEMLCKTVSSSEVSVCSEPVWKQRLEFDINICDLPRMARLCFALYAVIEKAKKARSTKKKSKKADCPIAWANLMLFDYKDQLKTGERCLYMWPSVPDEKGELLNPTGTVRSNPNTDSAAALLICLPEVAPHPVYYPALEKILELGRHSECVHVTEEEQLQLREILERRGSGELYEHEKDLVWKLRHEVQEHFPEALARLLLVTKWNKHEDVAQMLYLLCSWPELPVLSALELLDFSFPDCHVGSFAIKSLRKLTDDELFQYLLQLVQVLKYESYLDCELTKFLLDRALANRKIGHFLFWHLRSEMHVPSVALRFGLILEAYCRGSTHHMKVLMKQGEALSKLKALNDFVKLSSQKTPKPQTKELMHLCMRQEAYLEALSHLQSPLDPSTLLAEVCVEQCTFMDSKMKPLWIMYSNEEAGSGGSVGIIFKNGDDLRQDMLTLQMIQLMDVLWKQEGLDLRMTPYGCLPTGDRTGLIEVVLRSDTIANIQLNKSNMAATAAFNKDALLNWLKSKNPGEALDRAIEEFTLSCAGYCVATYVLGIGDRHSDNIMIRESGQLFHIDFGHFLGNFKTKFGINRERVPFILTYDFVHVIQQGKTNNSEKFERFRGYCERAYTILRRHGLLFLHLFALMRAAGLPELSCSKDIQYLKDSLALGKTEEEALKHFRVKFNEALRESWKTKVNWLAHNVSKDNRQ

[6] = target: DNA-dependent protein kinase catalytic subunit (Homo sapiens, UniProt P78527); experiment: Inhibition of human DNA-PK using EPPLSQEAFADLWKK as substrate at 10 uM by HTRF assay

T1 sequence (P42336 whole entry, canonical isoform): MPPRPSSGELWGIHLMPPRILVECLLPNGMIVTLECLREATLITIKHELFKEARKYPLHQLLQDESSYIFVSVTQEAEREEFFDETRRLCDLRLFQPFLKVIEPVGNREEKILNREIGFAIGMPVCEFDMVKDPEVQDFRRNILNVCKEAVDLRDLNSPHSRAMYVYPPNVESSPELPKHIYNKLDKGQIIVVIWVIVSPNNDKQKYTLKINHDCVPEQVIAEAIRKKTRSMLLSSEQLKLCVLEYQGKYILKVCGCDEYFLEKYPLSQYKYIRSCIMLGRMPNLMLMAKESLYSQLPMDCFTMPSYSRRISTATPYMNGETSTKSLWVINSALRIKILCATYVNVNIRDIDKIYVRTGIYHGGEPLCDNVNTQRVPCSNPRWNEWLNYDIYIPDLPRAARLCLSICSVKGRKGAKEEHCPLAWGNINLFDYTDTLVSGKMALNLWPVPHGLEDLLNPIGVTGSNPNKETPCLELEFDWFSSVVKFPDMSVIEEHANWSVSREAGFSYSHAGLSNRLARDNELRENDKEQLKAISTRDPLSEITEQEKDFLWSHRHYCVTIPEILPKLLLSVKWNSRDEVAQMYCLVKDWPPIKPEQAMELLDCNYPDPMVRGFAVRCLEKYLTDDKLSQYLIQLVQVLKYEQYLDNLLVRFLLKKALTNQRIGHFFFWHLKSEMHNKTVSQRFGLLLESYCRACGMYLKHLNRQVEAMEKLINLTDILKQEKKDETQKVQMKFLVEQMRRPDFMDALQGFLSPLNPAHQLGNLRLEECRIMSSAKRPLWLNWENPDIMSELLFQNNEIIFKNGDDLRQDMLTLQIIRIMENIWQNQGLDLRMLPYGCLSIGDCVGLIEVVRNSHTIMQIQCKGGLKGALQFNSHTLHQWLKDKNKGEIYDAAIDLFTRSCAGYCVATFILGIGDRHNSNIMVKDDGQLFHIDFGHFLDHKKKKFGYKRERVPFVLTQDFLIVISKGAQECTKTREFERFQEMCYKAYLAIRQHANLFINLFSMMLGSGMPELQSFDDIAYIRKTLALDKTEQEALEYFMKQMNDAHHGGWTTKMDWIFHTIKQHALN

| SMILES | inhibition [1] | IC50 [2] | inhibition of growth at 10 µM (A498) | inhibition of growth at 10 µM (MCF7) | Ratio IC50 (Homo sapiens) | IC50 [3] | inhibition [4] | inhibition [5] | inhibition [6] |
| --- | --- | --- | --- | --- | --- | --- | --- | --- | --- |
| O=c1nc(N2CCOCC2)oc2c(-c3cccc4ccccc34)cccc12 | 34% | 5 µM | 92% | 10.2% | 8 |  |  |  |  |
| O=c1nc(N2CCOCC2)oc2c(-c3cccs3)cccc12 |  |  | 36.8% | 21.9% |  | 3.3 µM | 43% |  |  |
| O=c1nc(N2CCOCC2)oc2c(-c3cccc4c3sc3ccccc34)cccc12 | 25% | 5.8 µM | 46.4% | 30.5% | 170 |  |  |  |  |
| COc1ccc(-c2cccc3c(=O)nc(N4CCOCC4)oc23)cc1 |  |  | 27.1% | 17.4% |  | 2.8 µM | 22% |  |  |
| O=c1nc(N2CCOCC2)oc2c(-c3ccsc3)cccc12 |  | 3.4 µM | 37.2% | 22.3% |  | 3 µM |  |  |  |
| O=c1nc(N2CCOCC2)oc2ccc(-c3cccc4c3sc3ccccc34)cc12 | 0% |  | 37.4% | 21% |  |  | 21% | 0% | 8% |
| NC(=O)c1ccc(-c2cccc3c(=O)nc(N4CCOCC4)oc23)cc1 |  |  | 1.82% | 9.68% |  | > 10 µM | 13% |  |  |
| O=c1nc(N2CCOCC2)oc2c(-c3cccc4c3oc3ccccc34)cccc12 | 26% | 6.9 µM | 27.9% | 11.3% |  |  |  |  |  |
